Results from patent US20120172384A1, “HETEROCYCLYLAMINOPYRIMIDINES AS KINASE INHIBITORS” (priority 2009, published 2012).

Legend:
[1] = biological target: T1, ZAP-70 (Homo sapiens, UniProt P43403); test: ZAP-70 kinobeads assay; assay type: binding; conditions: cell lysate, dot blot with ZAP-70 antibody
T1 construct: endogenous in cells
T1 sequence (P43403 1-619): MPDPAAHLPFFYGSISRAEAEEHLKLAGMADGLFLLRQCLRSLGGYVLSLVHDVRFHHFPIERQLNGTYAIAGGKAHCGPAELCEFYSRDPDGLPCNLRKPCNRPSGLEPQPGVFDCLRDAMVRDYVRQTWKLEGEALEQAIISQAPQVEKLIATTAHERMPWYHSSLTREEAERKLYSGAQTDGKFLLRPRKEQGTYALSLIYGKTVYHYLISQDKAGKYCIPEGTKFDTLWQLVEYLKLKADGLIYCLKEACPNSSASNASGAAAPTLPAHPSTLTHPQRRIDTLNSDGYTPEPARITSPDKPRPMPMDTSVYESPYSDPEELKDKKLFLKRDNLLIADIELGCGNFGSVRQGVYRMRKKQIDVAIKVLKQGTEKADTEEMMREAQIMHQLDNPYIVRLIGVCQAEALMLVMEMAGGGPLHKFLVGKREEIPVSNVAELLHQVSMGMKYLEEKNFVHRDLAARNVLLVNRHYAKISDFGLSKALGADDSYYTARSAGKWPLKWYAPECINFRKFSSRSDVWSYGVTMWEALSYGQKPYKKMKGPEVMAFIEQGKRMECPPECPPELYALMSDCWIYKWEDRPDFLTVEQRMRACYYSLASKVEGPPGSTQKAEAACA
Experimental: (§1) The compounds of the present invention as described in the previous examples were tested in the ZAP-70 kinobeads assay as described (EP-A 1862802 and WO-A 2007/137867). Briefly, test compounds (at various concentrations) and the affinity matrix with the immobilized aminopyrido-pyrimidine ligand 24 are added to cell lysate aliquots and allowed to bind to the proteins in the lysate sample. After the incubation time the beads with captured proteins are separated from the lysate. Bound proteins are then eluted and the presence ZAP-70 is detected and quantified using a specific antibody in a dot blot procedure and the Odyssey infrared detection system.

[2] = biological target: T2, JAK3 (Homo sapiens, UniProt P52333); test: JAK3 kinobeads assay; assay type: binding; conditions: cell lysate, dot blot with JAK3 specific antibody
T2 construct: endogenous in cells
T2 sequence (P52333 1-1124): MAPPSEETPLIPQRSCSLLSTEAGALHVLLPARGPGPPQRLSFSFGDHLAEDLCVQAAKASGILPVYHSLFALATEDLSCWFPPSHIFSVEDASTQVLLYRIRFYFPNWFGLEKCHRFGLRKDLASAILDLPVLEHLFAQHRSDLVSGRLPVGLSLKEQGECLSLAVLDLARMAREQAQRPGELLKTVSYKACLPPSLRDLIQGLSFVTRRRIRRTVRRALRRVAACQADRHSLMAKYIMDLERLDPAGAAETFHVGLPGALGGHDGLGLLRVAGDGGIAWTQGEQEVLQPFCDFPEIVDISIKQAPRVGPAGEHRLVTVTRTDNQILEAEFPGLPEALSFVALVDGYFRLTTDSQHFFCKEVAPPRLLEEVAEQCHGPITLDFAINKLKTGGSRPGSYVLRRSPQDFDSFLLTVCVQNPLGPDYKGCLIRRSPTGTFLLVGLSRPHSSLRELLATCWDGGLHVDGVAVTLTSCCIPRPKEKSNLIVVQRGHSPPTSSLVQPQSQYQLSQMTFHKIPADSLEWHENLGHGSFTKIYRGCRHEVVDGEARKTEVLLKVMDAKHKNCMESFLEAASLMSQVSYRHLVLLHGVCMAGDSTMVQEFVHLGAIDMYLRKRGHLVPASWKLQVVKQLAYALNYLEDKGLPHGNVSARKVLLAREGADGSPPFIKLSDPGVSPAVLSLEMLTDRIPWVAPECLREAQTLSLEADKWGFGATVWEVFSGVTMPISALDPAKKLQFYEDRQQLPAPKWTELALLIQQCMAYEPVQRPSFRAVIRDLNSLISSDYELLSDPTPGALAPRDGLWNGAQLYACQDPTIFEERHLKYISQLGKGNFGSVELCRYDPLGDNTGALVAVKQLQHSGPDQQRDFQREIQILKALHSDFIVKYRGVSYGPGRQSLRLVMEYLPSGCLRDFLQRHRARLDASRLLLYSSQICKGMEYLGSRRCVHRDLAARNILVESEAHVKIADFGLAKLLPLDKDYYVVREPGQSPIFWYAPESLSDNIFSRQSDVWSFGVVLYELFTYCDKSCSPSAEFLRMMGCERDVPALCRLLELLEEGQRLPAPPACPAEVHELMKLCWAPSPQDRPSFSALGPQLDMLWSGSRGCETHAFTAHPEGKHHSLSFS
Experimental: as §1
Compounds were tested by the procedure described in Example 102 but using a JAK3 specific antibody (Cell Signaling Technology, Inc., Danvers, US, catalogue number 3775) instead of a ZAP70 antibody.

With COc1ccc(Nc2nc(Nc3nonc3OC)ncc2Cl)c(NS(C)(=O)=O)c1 [Example 17, N-(2-(5-chloro-2-(4-methoxy-1,2,5-oxadiazol-3-ylamino)pyrimidin-4-ylamino)-5-methoxyphenyl)methanesulfonamide] the IC50 [1] was 1000 to 10000 nM and the IC50 [2] was 1000 to 10000 nM.

For COc1ccc(Nc2nc(Nc3cnn(C)c3)ncc2F)c(NS(C)(=O)=O)c1 [Example 21, N-(2-(5-fluoro-2-(1-methyl-1H-pyrazol-4-ylamino)pyrimidin-4-ylamino)-5-methoxyphenyl)methanesulfonamide], the IC50 [1] was 100 to 1000 nM and the IC50 [2] was no more than 100 nM.

Compound COc1ccc(Nc2nc(Nc3ccnn3C)ncc2Cl)c(NS(C)(=O)=O)c1 [Example 5, N-(2-(5-chloro-2-(1-methyl-1H-pyrazol-5-ylamino)pyrimidin-4-ylamino)-5-methoxyphenyl)methanesulfonamide] has an IC50 [1] of no more than 100 nM and an IC50 [2] of 100 to 1000 nM.

Cn1cc(Nc2ncc(Br)c(Nc3ccccc3NS(C)(=O)=O)n2)cn1 [Example 41, N-(2-(5-bromo-2-(1-methyl-1H-pyrazol-4-ylamino)pyrimidin-4-ylamino)phenyl)methanesulfonamide] was tested, and the IC50 [1] was 100 to 1000 nM and the IC50 [2] was no more than 100 nM.

Compound CCn1ccc(Nc2ncc(Cl)c(Nc3ccccc3NS(C)(=O)=O)n2)n1 [Example 42, N-(2-(5-chloro-2-(1-ethyl-1H-pyrazol-3-ylamino)pyrimidin-4-ylamino)phenyl)methanesulfonamide] has an IC50 [1] of 100 to 1000 nM and an IC50 [2] of no more than 100 nM.

Compound Cn1ccc(Nc2ncc(Cl)c(Nc3ccccc3NS(C)(=O)=O)n2)n1 [Example 16, N-(2-(5-chloro-2-(1-methyl-1H-pyrazol-3-ylamino)pyrimidin-4-ylamino)phenyl)methanesulfonamide] has an IC50 [1] of 100 to 1000 nM and an IC50 [2] of no more than 100 nM.

Compound COc1ccc(Nc2nc(Nc3cn(C)nc3C)ncc2F)c(NS(C)(=O)=O)c1 [Example 32, N-(2-(2-(1,3-dimethyl-M-pyrazol-4-ylamino)-5-fluoropyrimidin-4-ylamino)-5-methoxyphenyl)methanesulfonamide] has an IC50 [1] of 100 to 1000 nM and an IC50 [2] of 100 to 1000 nM.

For Cc1nn(C)cc1Nc1ncc(Cl)c(Nc2ccccc2NS(C)(=O)=O)n1 [Example 35, N-(2-(5-chloro-2-(1,3-dimethyl-1H-pyrazol-4-ylamino)pyrimidin-4-ylamino)phenyl)methanesulfonamide], the IC50 [1] was no more than 100 nM and the IC50 [2] was no more than 100 nM.

Compound CCn1cc(Nc2ncc(Cl)c(Nc3ccccc3NS(C)(=O)=O)n2)c(C)n1 [Example 33, N-(2-(5-chloro-2-(1-ethyl-3-methyl-M-pyrazol-4-ylamino)pyrimidin-4-ylamino)phenyl)methanesulfonamide] has an IC50 [1] of 100 to 1000 nM and an IC50 [2] of no more than 100 nM.

Compound COc1ccc(Nc2nc(Nc3c(C)nn(C)c3C)ncc2Cl)c(NS(C)(=O)=O)c1 [Example 13, N-(2-(5-chloro-2-(1,3,5-trimethyl-1H-pyrazol-4-ylamino)pyrimidin-4-ylamino)-5-methoxyphenyl)methanesulfonamide] has an IC50 [1] of 100 to 1000 nM and an IC50 [2] of 1000 to 10000 nM.

CCn1nccc1Nc1ncc(Cl)c(Nc2ccc(OC)cc2NS(C)(=O)=O)n1 [Example 29, N-(2-(5-chloro-2-(1-ethyl-1H-pyrazol-5-ylamino)pyrimidin-4-ylamino)-5-methoxyphenyl)methanesulfonamide] was tested, and the IC50 [1] was 100 to 1000 nM and the IC50 [2] was 1000 to 10000 nM.

Compound COCCn1nc(C)cc1Nc1ncc(Cl)c(Nc2ccc(OC)cc2NS(C)(=O)=O)n1 [Example 96, N-(2-((5-chloro-2-((1-(2-methoxyethyl)-3-methyl-1H-pyrazol-5-yl)amino)pyrimidin-4-yl)amino)-5-methoxyphenyl)methanesulfonamide] has an IC50 [1] of 100 to 1000 nM and an IC50 [2] of 1000 to 10000 nM.

Cc1cc(Nc2ncc(Cl)c(Nc3ccccc3NS(C)(=O)=O)n2)nn1C [Example 39, N-(2-(5-chloro-2-(1,5-dimethyl-1H-pyrazol-3-ylamino)pyrimidin-4-ylamino)phenyl)methanesulfonamide] was tested, and the IC50 [1] was 100 to 1000 nM and the IC50 [2] was no more than 100 nM.

Compound COc1ccc(Nc2nc(Nc3ccn(C)n3)ncc2F)c(NS(C)(=O)=O)c1 [Example 7, N-(2-(5-fluoro-2-(1-methyl-1H-pyrazol-3-ylamino)pyrimidin-4-ylamino)-5-methoxyphenyl)methanesulfonamide] has an IC50 [1] of 100 to 1000 nM and an IC50 [2] of 100 to 1000 nM.

With CCn1cc(Nc2ncc(F)c(Nc3ccccc3NS(C)(=O)=O)n2)c(C)n1 [Example 37, N-(2-(2-(1-ethyl-3-methyl-1H-pyrazol-4-ylamino)-5-fluoropyrimidin-4-ylamino)phenyl)methanesulfonamide] the IC50 [1] was 1000 to 10000 nM and the IC50 [2] was 100 to 1000 nM.

With COc1ccc(Nc2nc(Nc3cn[nH]c3)ncc2F)c(NS(C)(=O)=O)c1 [Example 24, N-(2-(2-(1H-pyrazol-4-ylamino)-5-fluoropyrimidin-4-ylamino)-5-methoxyphenyl)methanesulfonamide] the IC50 [1] was 100 to 1000 nM and the IC50 [2] was no more than 100 nM.

With CS(=O)(=O)Nc1ccccc1Nc1nc(Nc2ccon2)ncc1Cl [Example 38, N-(2-(5-chloro-2-(isoxazol-3-ylamino)pyrimidin-4-ylamino)phenyl)methanesulfonamide] the IC50 [1] was 1000 to 10000 nM and the IC50 [2] was no more than 100 nM.

In the case of COc1ccc(Nc2nc(Nc3cc(C(C)C)nn3C)ncc2Cl)c(NS(C)(=O)=O)c1 [Example 11, N-(2-(5-chloro-2-(3-isopropyl-1-methyl-1H-pyrazol-5-ylamino)pyrimidin-4-ylamino)-5-methoxyphenyl)methanesulfonamide], the IC50 [1] is reported as 100 to 1000 nM and the IC50 [2] is reported as 100 to 1000 nM.

With COc1ccc(Nc2nc(Nc3cc(C)nn3C(C)C3CC3)ncc2Cl)c(NS(C)(=O)=O)c1 (centres unmarked) [Example 88, N-(2-((5-chloro-2-((1-(1-cyclopropylethyl)-3-methyl-1H-pyrazol-5-yl)amino)pyrimidin-4-yl)amino)-5-methoxyphenyl)methanesulfonamide] the IC50 [1] was 1000 to 10000 nM.

With CCn1ncc(C)c1Nc1ncc(Cl)c(Nc2ccc(OC)cc2NS(C)(=O)=O)n1 [Example 26, N-(2-(5-chloro-2-(1-ethyl-4-methyl-1H-pyrazol-5-ylamino)pyrimidin-4-ylamino)-5-methoxyphenyl)methanesulfonamide] the IC50 [1] was 1000 to 10000 nM.

In the case of COc1ccc(Nc2nc(Nc3c(C)noc3C)ncc2Cl)c(NS(C)(=O)=O)c1 [Example 19, N-(2-(5-chloro-2-(3,5-dimethylisoxazol-4-ylamino)pyrimidin-4-ylamino)-5-methoxyphenyl)methanesulfonamide], the IC50 [1] is reported as 1000 to 10000 nM.

COc1ccc(Nc2nc(Nc3cc(C)nn3C(C)C)ncc2Cl)c(NS(C)(=O)=O)c1 [Example 71, N-(2-((5-chloro-2-((1-isopropyl-3-methyl-1H-pyrazol-5-yl)amino)pyrimidin-4-yl)amino)-5-methoxyphenyl)methanesulfonamide] was tested, and the IC50 [1] was 100 to 1000 nM.

Compound CCCn1nc(C)cc1Nc1ncc(Cl)c(Nc2ccc(OC)cc2NS(C)(=O)=O)n1 [Example 69, N-(2-((5-chloro-2-((3-methyl-1-propyl-1H-pyrazol-5-yl)amino)pyrimidin-4-yl)amino)-5-methoxyphenyl)methanesulfonamide] has an IC50 [1] of no more than 100 nM.
